Results published in patent US4536578A, “1-[3-(6-Fluoro-1,2-benzisoxazol-3-yl)propyl]-4-(substituted)piperazines” (Hoechst-Roussel Pharmaceuticals Inc., priority 1982, dated 1985).
Where a name gives a salt, the structure may show the parent alone. Read-outs that look alike come from different tables or passages of the source.

Tests used:
[1] = system: phenyl-para-quinone induced writhing; experiment: phenyl-para-quinone writhing assay in mice (analgesia); format: in vivo; settings: Mus musculus, sc, read-out: Analgesic Activity ED50 (dose at which 50% of the phenyl-para-quinone induced writhing is inhibited)
Text: Exptl. Biol. Med., 95, 729 (1957)]. Presented in Table I is the analgesic effect of some of the compounds of the invention, expressed as the subcutaneous dose at which 50% of the phenyl-para-quinone induced writhing is inhibited in the animals, i.e., the ED50.

[2] = system: apomorphine-induced climbing; experiment: climbing mice assay (apomorphine-induced climbing); format: in vivo; settings: intraperitoneal 30 min before apomorphine 1.5 mg/kg s.c.
Method: The subject CK-1 male mice (23-27 grams) are group-housed under standard laboratory conditions. The mice are individually placed in wire mesh stick cages (4"×4" by 10") and are allowed one hour for adaptation and exploration of the new environment.
For evaluation of climbing, 3 readings are taken at 10, 20 and 30 minutes after apomorphine administration according to the following scale:
Mice consistently climbing before the injection of apormorphine will be discarded.
With full-developed apomorphine climbing, the animals are hanging onto the cage walls, rather motionless, over longer periods of time. By contrast, climbs due to mere motor stimulation usually only last a few seconds.
The climbing scores are individually totaled (maximal score: 6 per mouse over 3 readings) and the total score of the control group (vehicle intraperitoneally--apomorphine subcutaneously) is set to 100%.

[3] = system: conditioned avoidance; experiment: Sidman Avoidance Paradigm in squirrel monkeys; format: in vivo, squirrel monkeys (Saimiri sciureus); settings: Primates
Text: The subjects are male squirrel monkeys (Saimiri sciureus). They are housed in individual home cages in the animal quarters for at least six weeks prior to training. When they are not in the test chambers, the subjects are maintained in their home cages with water available ad libitum and food available twice daily.
The apparatus consists of test cages (BRS/LVE) with a single lever and house-light. This is enclosed in a sound-attenuating chamber (BRS/LVE) with fan and the chambers are in an isolated room equipped with a speaker emitting a white-noise auditory background. The test cages have a grid floor of steel bars which are attached to a scrambled shock source (Coulbourn Instruments). The house-lights, shockers and response levers are controlled by BRS/LVE electromechanical timer and controls. The records of responses and shocks are recorded on Coulbourn print-out counters and Gerbrands cumulative recorders.
The monkeys are trained to avoid an unsignaled shock by repetitive lever-pressing responses. A shock (1.0 mA for 0.5 seconds) is delivered to the grid floor every 20 seconds if no responses are made (shock-shock interval of 20 seconds: SS-20"). A lever-press (response) will delay the oncoming shock for 20 seconds (Response-Shock interval of 20 seconds: RS-20").
Every 15 minutes the total number of shocks received and the total number of responses made are accumulated and constitute the basic data. The animals are trained until they maintain a stable response-rate and are receiving no more than 50 shocks per 4 hour test session. After reaching these criteria of performance, experimental compounds are administered and their effects on the performance of this learned avoidance behavior are evaluated.
The drug's effect on performance of each animal is compared to the performance data generated in the previous non-drug session. Each animal thereby serves as its own control. The basic measures of performance during a specific time interval, responses and shocks, are used for evaluation. Responses are reported both as totals and as percent of control responses. Shocks are reported as totals and as shock-avoided (SHA) as percent of control. This latter measure is computed by subtracting the number of shocks received from the total number of possible shocks if no responses are made.
However, an ED50 may be estimated during a representative time of peak activity.

[4] = system: extrapyramidal symptomatology; settings: monkey, in vivo, po
Method: Adult male squirrel monkeys (Saimiri sciurens) are housed in individual home cages and fed twice daily with water available "ad libitum" when they are not in the test chambers.
On the test day, drugs are administered by oral intubation immediately prior to testing in volumes of 1.0 cc/kg of body weight. The compounds are dissolved in distilled water or suspended with the addition of one drop of Tween-80 per 10 cc of solution.
After dosing, the monkeys are placed in observation chambers in an isolated room. Two experienced investigators observe the monkeys for dyskinetic symptomatology at 2, 4 and 6 hours postdose. They score the monkeys for the following specific dyskinetic symptomatology:
Circling--when the monkey rapidly circles the cage floor
"Duck walk"--when the monkey walks in a seated position with arms curled and held tightly to his side
Limb extension--an abnormal, prolonged extension of one or more limbs, similar to but of longer duration than a stretching motion
Pushing--the monkey will push against the cage wall with his head or body, frequently at the end of a circling episode
Writhing--slow, writhing movements of the whole body frequently in conjunction with a pushing episode
Oral dyskinesias--chewing, gnawing and abnormal tongue protrusions
The following scoring index is used in order to quantify the severity of symptoms:

[5] = system: spontaneous hypertensive rat; experiment: antihypertensive activity in the spontaneous hypertensive rat, indirect tail cuff method; format: in vivo; settings: 50 mg/kg of body wt, intraperitoneal, 3 days, measured on third day, group of 4 rats
Method: According to this procedure, the test compound is administered intraperitoneally to a group of 4 rats for 3 days. The decrease in blood pressure is measured on the third day of administration.

[6] = squirrel monkeys, oral intubation immediately prior to testing, avoidance response, read-out: Antipsychotic Activity, Avoidance Response ED50
[7] = squirrel monkeys, oral intubation immediately prior to testing, escape response, read-out: Antipsychotic Activity, Escape Response ED50

For `COc1ccccc1N1CCN(CCCc2noc3cc(F)ccc23)CC1` [Example 1, 1-[3-(6-Fluoro-1,2-benzisoxazol-3-yl)propyl]-4-(2-methoxyphenyl)piperazine dihydrochloride], the ED50 ([1]; mice, subcutaneous) was 5.2 mg/kg, the “Antipsychotic Activity (% decrease in climbing score)” value ([2]; dose 4.1 mg/kg of body wt) was 50% and the ED50 [3, 6] was 2.9 mg/kg. For the same compound, the ED50 [3, 7] was 4.8 mg/kg, the ED50 ([3]; squirrel monkeys, oral, printed as dose with * in Table V, read-out: ED50 value in the Sidman Avoidance Paradigm in squirrel monkeys (footnote * to Table V)) was 3.5 mg/kg and the “% Monkeys showing extrapyramidal symptoms” value ([4]; 3.5 mg/kg) was 0%. The “% Monkeys showing extrapyramidal symptoms” value ([4]; 5 mg/kg) was 0% and the “% Monkeys showing extrapyramidal symptoms” value ([4]; 10 mg/kg) was 66%.

`Fc1ccc2c(CCCN3CCN(c4ccccc4)CC3)noc2c1.O=C(O)C(=O)O` [Example 2, 1-[3-(6-Fluoro-1,2-benzisoxazol-3-yl)propyl]-4-phenylpiperazine oxalate] was tested, and the ED50 ([1]; mice, subcutaneous) was 1.8 mg/kg, the “Blood Pressure Decrease (mean arterial blood pressure)” value (“Blood Pressure Decrease” below) [5] was 38 mm/mercury and the “Antipsychotic Activity (% decrease in climbing score)” value ([2]; dose 10 mg/kg of body wt) was 31%.

In the case of `Fc1ccc(N2CCN(CCCc3noc4cc(F)ccc34)CC2)cc1.O=C(O)C(=O)O` [Example 3, 1-[3-(6-Fluoro-1,2-benzisoxazol-3-yl)propyl]-4-(4-fluorophenyl)piperazine oxalate], the “Blood Pressure Decrease” value [5] is reported as 33 mm/mercury.

With `Cl.Fc1ccc2c(CCCN3CCN(c4ccccc4Cl)CC3)noc2c1` [Example 4, 4-(2-Chlorophenyl)-1-[3-(6-fluoro-1,2-benzisoxazol-3-yl)propyl]piperazine hydrochloride] the “Blood Pressure Decrease” value [5] was 55 mm/mercury.

`Cl.Fc1ccc2c(CCCN3CCN(c4cccc(C(F)(F)F)c4)CC3)noc2c1` [Example 5, 1-[3-(6-Fluoro-1,2-benzisoxazol-3-yl)propyl]-4-(3-trifluoromethylphenyl)piperazine hydrochloride] was tested, and the “Blood Pressure Decrease” value [5] was 66 mm/mercury.

`Cc1ccccc1N1CCN(CCCc2noc3cc(F)ccc23)CC1` [Example 6, 1-[3-(6-Fluoro-1,2-benzisoxazol-3-yl)propyl]-4-(2-methylphenylpiperazine oxalate] was tested, and the “Blood Pressure Decrease” value [5] was 33 mm/mercury.

In the case of `Cl.Cl.Fc1ccc2c(CCCN3CCN(c4ccccn4)CC3)noc2c1` [Example 10, 1-[3-(6-Fluoro-1,2-benzisoxazol-3-yl)propyl]-4-(2-pyridyl)piperazine dihydrochloride], the ED50 ([1]; mice, subcutaneous) is reported as 0.8 mg/kg, the “Blood Pressure Decrease” value [5] is reported as 66 mm/mercury and the “Antipsychotic Activity (% decrease in climbing score)” value ([2]; dose 10 mg/kg of body wt) is reported as 31%.

`N=C(N)NCCN1CCCCCCC1` [guanethidine, reference compound] was tested, and the “Blood Pressure Decrease” value [5] was 20 mm/mercury.

With `O=C(CCCN1CCC(O)(c2ccc(Cl)cc2)CC1)c1ccc(F)cc1` [haloperidol] the “Antipsychotic Activity (% decrease in climbing score)” value ([2]; dose 0.11 mg/kg of body wt) was 50%, the ED50 ([3]; po, read-out: Antipsychotic Activity, Avoidance Response ED50) was 1.21 mg/kg and the ED50 ([3]; po, read-out: Antipsychotic Activity, Escape Response ED50) was 1.27 mg/kg. For the same compound, the ED50 ([3]; po, read-out: ED50 value in the Sidman Avoidance Paradigm in squirrel monkeys (footnote * to Table V)) was 1.3 mg/kg, the “% Monkeys showing extrapyramidal symptoms” value ([4]; 0.625 mg/kg) was 33% and the “% Monkeys showing extrapyramidal symptoms” value ([4]; 1.3 mg/kg) was 100%.

Work on `CC(C)=CCN1CCC2(C)c3cc(O)ccc3CC1C2C` (centres unmarked) [pentazocine, reference compound] yielded an ED50 [1] of 1.3 mg/kg.

With `CCC(=O)O[C@](Cc1ccccc1)(c1ccccc1)[C@H](C)CN(C)C` [propoxyphene, reference compound] the ED50 [1] was 3.9 mg/kg.

For `CSc1ccc2c(c1)N(CCC1CCCCN1C)c1ccccc1S2` (centres unmarked) [thioridazine], the “Antipsychotic Activity (% decrease in climbing score)” value ([2]; dose 3.5 mg/kg of body wt) was 50%, the ED50 [3, 6] was 2.6 mg/kg and the ED50 [3, 7] was 3.5 mg/kg. For the same compound, the “% Monkeys showing extrapyramidal symptoms” value ([4]; 3.5 mg/kg) was 100% and the “% Monkeys showing extrapyramidal symptoms” value ([4]; 7 mg/kg) was 100%.
